Experimental data reported in a melting point compilation (Tetko et al.; mined from patent text by program, amines drawn as free bases though some values may be those of a salt).

| SMILES | melting point [°C] |
| --- | --- |
| CC(C#CCOc1cccc(Oc2ccccn2)c1)N(O)C(N)=O (stereo not given) | 117 to 119 |
| O=C1CNc2c(Cl)cccc2N1 | 191 to 193 |
| COc1ccc(CCl)cc1OC | 50 to 51 |
| Cc1cc(-c2cccc(NC(=O)C(C)(C)C)c2)cc2c1[C@H]1CCC(=O)N(C)[C@@H]1CC2 | 95 to 98 |
| CCCCCCCCCCN1C(=O)C2CC(c3ccc(N)cc3)(C2)C1=O | 81.5 to 82.5 |
| N#Cc1ccc(C(=O)N2CCC3(CC2)C(=O)NC(=O)N3Cc2ccccc2)cc1 | 207 to 209 |
| Cn1c(=O)ccc2cnc(S(C)(=O)=O)nc21 | 194 to 196 |
| NS(=O)(=O)c1ccc(NC(=O)c2cccnc2SSc2ncccc2C(=O)Nc2ccc(S(N)(=O)=O)cc2)cc1 | 280 |
| NC(=NO)c1nn(-c2c(Cl)cc(C(F)(F)F)cc2Cl)c(N)c1S(=O)(=O)C(F)(F)F | 205 to 206 |
| CC(C)CCc1c(-c2ccc(S(C)(=O)=O)cc2)cnn(-c2ccc(F)c(F)c2)c1=O | 55 to 58 |
| CNC1(c2ccc(C#CC(=O)Nc3ccc(-c4ccc(Cl)cc4)cc3)cc2)CC1 | 217 |
| Nc1cc2ccncc2c2sc3ccccc3c12 | 220 to 225 |
| CC1CSC2=CC=NC3=CC=CC(c4ccccc4)C321 (stereo not given) | 164 |
| Cc1nccn1N=Cc1ccccc1 | 122 to 124 |
| Cc1cc(Cc2ccc(C(=O)O)cc2)n(C)c1C(=O)c1ccc(Cl)cc1 | 245 to 247 |
| CC(=O)NNc1ccnc2c(NC(=O)c3c(Cl)cccc3Cl)cc(F)cc12 | 250 to 254 |
| Fc1ccc(-c2nc3ccccn3c2Br)c(F)c1 | 144 |
| c1ccc(-c2cc(NC3=NCCN3)n(-c3ccccc3)n2)cc1 | 228 to 230 |
| O=C(O)CCCc1ccc(NS(=O)(=O)c2cccc(C(F)(F)F)c2)cn1 | 157 to 159 |
| O=C(c1cccc(C(F)(F)F)c1)c1ccc[nH]1 | 54 to 56 |
| CCOCc1nc2c(N)nc3ccccc3c2n1NCCC(C)C | 129 to 132 |
| Cc1cn(C)c2c1N(C(=O)CCBr)c1ccccc1NC2=O | 194 to 195 |
| C#CCOc1ccc(C=NOC)cc1OC | 68 to 69 |
| CC(C)n1nc(-c2ccc(OCCCCl)cc2)c2sccc2c1=O | 92 to 94 |
| Cc1cn(-c2cc(NC(=O)c3ccc(Cl)c(C#Cc4ccc(NC5CC5)nn4)c3)cc(C(F)(F)F)c2)cn1 | 213 to 215 |

| SMILES | melting point [°C] |
| --- | --- |
| COc1ccc(N)cc1NCC(N)=O | 144 |
| N#Cc1ccn2ccccc12 | 53 to 54 |
| CCCn1c(=O)n(C)c(=O)c2nc(-c3ccc(/C=C/C(=O)O)cc3)[nH]c21 | > 300 |
| Cc1cc(C#N)c(C)c(C(=O)Nc2ccc(F)cn2)n1 | 196 |
| O=C(Nc1cc(F)c(-c2ccncc2)c(F)c1)OCc1ccccc1 | 185 to 186 |
| N#Cc1cccc(C2=Nc3ccc(CCc4ccccc4)cc3NC(=O)C2)c1 | 212 to 214 |
| O=C1c2ccccc2S(=O)(=O)N1CCCCOc1ccc(OCc2ccccc2)cc1 | 82 to 84 |
| Cc1oc(-c2ccccc2)nc1COc1nn(Cc2ccc(Oc3ccccc3)cc2)cc1/C=C/C(=O)O | 210 to 211 |
| O=S(=O)(Cl)CCCCCc1ccc(OCc2ccccc2)cc1 | 58 to 60 |
| COC(=O)c1ccccc1C(=O)NN(C(=S)Nc1ccccc1)C(C)C | 145 to 147 |
| Cc1nc(N2CCCN(CC3CC3)C2=O)sc1C(=O)NCc1cccnc1 | 142 to 145 |
| COc1cc(OC)c2c(=O)[nH]c(-c3ccc(OCCNC(C)C)c(-c4ccc(S(C)(=O)=O)cc4)n3)nc2c1 | 114 to 116 |
| CCOc1c(C)c(C)c(O)c(CNCCOc2cc(C)ccc2C(C)C)c1C | 99 to 101 |
| Cc1ccc(OC(CCCCCc2ccc(Cl)cc2)C(=O)O)cc1 (stereo not given) | 74 to 76 |
| CCN(CC)c1ccc(N(c2ccc(N(CC)CC)cc2)C2(c3ccc(N(C)C)cc3C)OC(=O)c3ccccc32)cc1 (stereo not given) | 59 to 72 |
| O=C(O)CCC1(CCC(=O)O)CCC(=O)N1 | 162 to 164 |
| CCOC(=O)c1ccc(CNC(=O)CCl)cc1O | 120 to 121 |
| CCCC[C@H](NC(=O)[C@H](CC(C)C)NC(=O)c1ccc(C(=O)OC)cc1)C(=O)CSCc1ccco1 | 100 to 102 |
| O=CC1c2ccccc2CCc2ccccc21 | 76 to 77 |
| Fc1ccc(-c2n[nH]cc2-c2ccnc(NC3CC3)n2)cc1 | 203 to 204 |
| O=C(/C=C/c1cccc(S(=O)(=O)N2CCN(CCc3ccc4ccccc4c3)CC2)c1)NO | 184 |
| C[C@]12CCC(=O)C=C1CC[C@@H]2c1cn(Cc2ccccc2)nn1 | 122 to 125 |
| CCOC(=O)c1c(Cn2cncn2)nc2sc(C)c(C)c2c1-c1ccc(Cl)cc1 | 144 to 145 |
| CCCCCCCCCCCCc1ccc(S(=O)(=O)Nc2nnc(CC)s2)cc1 | 93 to 94 |
| CC1=Cc2ccc(Cl)cc2C(c2ccc([N+](=O)[O-])c(C)c2)=NN1C(=O)NC1CC1 | 221 to 223 |

| SMILES | melting point [°C] |
| --- | --- |
| CCc1cc(C(=O)O)c2cc(C(C)C)cccc1-2 | 154 to 156 |
| O=C(NS(=O)(=O)C=Cc1ccccc1)N1CCCC1 | 201 to 204 |
| Cc1ccc2ccccc2c1C(=O)/C=C/c1ncn(C(c2ccccc2)(c2ccccc2)c2ccccc2)c1C | 222 to 224 |
| C#CCn1c(C#N)ccc1-c1ccc2c(c1)C(C)(C)OC(=O)N2 | 222 to 224 |
| CCN(CC(O)CCl)c1ccc2c(c1)C(=O)N(C)C2=O (stereo not given) | 123 |
| CC(=O)Oc1c(C)cc2c(c1C)C(C)CN2C(=O)C(C)C (stereo not given) | 118 to 120 |
| CCCCCCCCCCCCCCCCCCOC(=O)Cc1cc(C(C)(C)C)c(O)c(C)c1C | 79 to 81 |
| COc1ccc(CCCS(=O)(=O)c2ccc(S(N)(=O)=O)s2)cc1 | 136 to 138 |
| CCOC(=O)C(c1ccccc1)n1cccc1 (stereo not given) | 51 to 53 |
| CC(C)Cn1c(CNC(=O)OC(C)(C)C)c(-c2ccccc2)c2cc(CCC(=O)O)ccc2c1=O | 182 to 183 |
| CCCOc1ccn2nc(-c3ccccc3)c(-c3ccc(=O)n(C(C)C)n3)c2c1 | 162 |
| CC1(C)Cc2ccoc2C(=O)N1 | 133 to 134 |
| COc1cccc(CNc2ncnc3c2sc2nc(N4CCSCC4)c4c(c23)CC(C)(C)CC4)c1OC | 112 to 114 |
| O=C(O)c1ccc(-c2c[nH]c(=O)cn2)cc1 | > 300 |
| O=C1CCC(N2C(=O)c3cccc(NC(=O)c4cccc(F)c4)c3C2=O)C(=O)N1 (stereo not given) | 260 to 262 |
| Cn1ncc(/C=C/C(=O)Nc2ccc(CNC(=O)c3ccccc3)cc2)c1-c1ccc(F)cc1 | 250 to 251 |
| CC(C)c1nc(CCOC2=CCCCCCC2)n(C)c1Sc1cc(Cl)cc(Cl)c1 | 73 to 74 |
| COC(=O)c1ccc(Cl)c2nc(C(C)(C)C)oc12 | 130 to 131 |
| OCC(CO)Oc1ccc(I)cc1 | 90 |
| O=CC=C(c1cccc([N+](=O)[O-])c1)c1cccc([N+](=O)[O-])c1 | 131 to 136 |
| O=C(Nc1cccnc1)N1CCN(c2nccc(-c3ccccc3F)n2)CC1 | 200 to 201 |
| CCC1CC2=C(CCC(=O)C2)C2CCC3(C)C(=CCC3O)C12 (stereo not given) | 102 to 105 |
| N#Cc1ccccc1-c1ccc(CNc2ccnc3ccnn23)cc1 | 170 |
| O=[N+]([O-])c1ccc(N=C(NC(=S)NCc2cccnc2)c2ccccc2)cc1 | 179 to 180 |
| Cc1nn(-c2cc(C(F)(F)F)ccc2Cl)cc1C(=O)N(CC(=O)O)c1ccc(OCC(C)(C)C)c(C#N)c1 | 189 to 190 |

| SMILES | melting point [°C] |
| --- | --- |
| Cc1c(CC(=O)N[C@@H](CO)C(=O)O)cc(-c2ccc(S(C)(=O)=O)cc2)n1-c1ccc(F)cc1 | 120 |
| CC(C)CCCC(C)C1CCC2C3CC=C4CC(NC(=O)CCN(C)C(=O)OC5c6ccccc6-c6ccccc65)CCC4(C)C3CCC12C (stereo not given) | 124 to 128 |
| CCOC(=O)C(=CNc1nnc(N2CCOC(C)C2)s1)C(=O)OCC (stereo not given) | 89 to 91 |
| COc1csc(C)c1N | 61 to 63 |
| COC(=O)c1ccc(=O)n(CCNC(=O)c2cc(Cl)ccc2OC)c1 | 149 to 150 |
| Cc1nccn1-c1cccc(C2=Nc3cc(O)c(-c4ccc(F)cc4)cc3NC(=O)C2)c1 | 260 |
| Cc1ccc(S(=O)(=O)NO[Si](C)(C)C)cc1 | 87 to 90 |
| COC(=O)c1cc(C=O)c(C(F)(F)F)cc1NC(C)=O | 106 to 108 |
| CNC(=S)N1CCN(c2cnccn2)CC1 | 197 to 200 |
| CC(=O)OC1CSC(Oc2cncc(-c3cnn(C)c3)c2)C(OC(C)=O)C1OC(C)=O (stereo not given) | 68 |
| CN(O)C(=O)C(=O)c1ccc(OCCOc2ccc3ccccc3c2)cc1 | 161 to 165 |
| CN1CC(CN)c2c[nH]c3cccc(c23)C1=O (stereo not given) | 85 to 87 |
| O=C(O)C1C=CC=CC1(F)OC(Cc1c(CCNS(=O)(=O)Cc2ccc(Cl)c(Cl)c2)[nH]c2ccc(Cl)cc12)C(c1ccccc1)c1ccccc1 (stereo not given) | 117 to 119 |
| O=C(NC1(C(=O)O)CCCCC1)OCc1ccccc1 | 152 to 154 |
| CCc1cnc(C)c(C(=O)O)c1 | 218 to 220 |
| C=CCC(NC(=O)C(C)(C)C)C(=O)O (stereo not given) | 87 to 88 |
| C/C(=C\CNC(=O)c1ccccc1)c1ccccc1 | 139 |
| O=C(CCc1ccccc1)N[C@H](Cc1ccc(C(F)(F)F)c(F)c1)[C@@H](O)c1ccc(F)cc1 (racemic) | 126 to 127 |
| COC(=O)[C@H](Cc1ccc(O)cc1)Nc1ccccc1C(=O)c1ccccc1 | 185 to 186 |
| CCCCCCCCCCOc1ccc(-c2c(C)[nH]c(=O)n2C2CCCCC2)cc1 | 137 to 138 |
| CCCC(CCOc1c(-c2ccc(S(C)(=O)=O)cc2)cnn(-c2ccc(F)cc2)c1=O)SC (stereo not given) | 90 to 92 |
| COc1cc(C(=O)NCC2c3ccccc3CC(C)N2C(=O)c2ccccc2)cc(OC)c1OC (stereo not given) | 160 to 162 |
| Cc1cnc(S(=O)(=O)c2ccccc2)c(C)c1Cl | 91 to 92 |
| Cc1ccc(-c2cc(C=O)nn2-c2ccc(S(N)(=O)=O)cc2)cc1 | 196 to 198 |
| COc1ccc(CCOc2ccc(NC(=O)c3cc(F)cc(N4CCOCC4)c3)c3ccccc23)cc1OC | 73 to 75 |
